Literature values in patent US4127522A, “Novel triacontapeptides, intermediates therefor and pharmaceutical compositions and methods employing said triacontapeptides” (priority 1977, dated 1978).

Key:
[1] = test system: partially purified brain opiate receptor sites; details: natural peptide; Bradbury et al.
[2] = injected directly into the brain of the rat; Belluzzi et al.

H-Tyr-Gly-Gly-Phe-Met-OH [methionine enkephalin]
activity in bioassays for opiate activity (opiate activity): very active | binding to partially purified brain opiate receptor sites [1]: binds stereo-specifically | analgesic activity [2]: only weak analgesic agent of short duration
